The record followed here is patent US9587471B2, “Controlling bioavailability of nutrient additions in subsurface formations” (E I DU PONT DE NEMOURS AND COMPANY, priority 2008, dated 2017).

Counter-ions that a name gives are not always drawn.

Data set [1] deals with Pseudomonas stutzeri strain LH4:15 (ATCC PTA-8823). As to the kind of experiment: Aerobic growth response (turbidity) to varying concentrations of industrial preservatives.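 As to growth (turbidity): single plus means slight turbidity.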 The class given is cell-based. How it is done: (§1) Typically cells were grown at a temperature in the range of about 25° C. to about 40° C. in an appropriate medium.
Pseudomonas stutzeri strain LH4:15 (ATCC PTA-8823) was grown as outlined in Example 1. Various preservatives commonly used in the food, cosmetic, and water treatment industries were tested for their inhibitory effect at various concentrations (Table 2). Growth was monitored visually and positive growth was indicated by moderate to heavy turbidity.

Data set [2] shares this test system. As to the kind of experiment: Anaerobic growth and survival: biocidal versus biostatic inhibition. The class given is cell-based. Particulars: for change in Log cell number: day 0 vs day 7, anaerobic; for Final anaerobic vial OD: starting OD600 = 0.05; for effectiveness of the inhibitor in words: judged by OD600 and cell killing, Table 3. How it is done: In this invention, the anaerobic growth and survival was tested in 20 ml crimp-capped anaerobic vials, using a complete nutrient medium of the following composition: Na2HPO4.7H2O, 1.4 g/L, KH2PO4, 0.69 g/L, NH4Cl, 0.5 g/L, MgSO4.7H2O, 0.1/L g, SL-10 trace metals, 10 ml, NaCl, 7.5 g/L, NaHCO3, 7.2 g/L, sodium nitrate, 12 g/L, Na lactate, 7 g/L, yeast extract, 10 mg/L, pH 7.3-7.8.
The anaerobic growth and survival was tested as outlined above. […] Vials were inoculated using an overnight aerobic culture of Pseudomonas stutzeri strain LH4:15 (ATCC PTA-8823) in Luria Bertani medium (LB, Mediatech Inc., Herndon, Va.,) at a final OD600 of 0.05. Within 2 hours of inoculation, serial dilutions from each treatment vial were made into aerobic LB medium to determine the cell numbers at Day 0. After approximately 24 hours cell numbers were estimated by noting the highest positive dilution based on the presence or absence of turbidity in dilutions of 10^−1 to 10^−11 in the serial dilution plates. Cell numbers on Day 0 and Day 7 were measured to obtain a survival estimate during inhibitor exposure.

The subject of data set [3] is Pseudomonas stutzeri strain LH4:15, ATCC PTA-8823. Put plainly: Aerobic growth response (turbidity) to varying concentrations of potential microbial nutrients. Also: key: − = no turbidity; + = slight turbidity; ++ = moderate to heavy turbidity. Format: cell-based. How it is done: as §1
Additional potential microbial nutrients were added at various concentrations as outlined in Table 1. Growth was monitored visually with positive growth indicated by moderate to heavy turbidity.

Data set [4] is described as follows: Decline (hydrolysis) of ethyl formate in injection water. The class given is physicochemical. As to conditions: in about four days, anaerobic, approximately 25° C., 0.2% added. How it is done: The growth delay allows deeper penetration into the oil well formation and more widespread MEOR activation.
(§2) Injection water was amended with sodium nitrate as electron acceptor plus a growth substrates. In addition 0.2% ethyl formate was added to the inhibited treatment. The injection water was incubated anaerobically at approximately 25° C. under an atmosphere of 80% nitrogen and 20% carbon dioxide, reflecting typical growth conditions in the North Slope oil well formations. Growth of the native populations, nitrate concentrations and ethyl formate concentrations were monitored over two weeks.

Data set [5] relates to native anaerobic population in the injection water from the North Slope of Alaska. As to the kind of experiment: Growth and nitrate+nitrite consumption of native populations in injection water. Format: cell-based. The protocol: as §2
Setting [6] is: 0.5 g/L, 24 hours of incubation.
[7] abbreviates: 0.5 g/L, 48 hours of incubation.
Setting [8] is: 0.5 g/L, 120 hours of incubation.

On to `CN(C)C(=S)[S-].[Na+]` [sodium dithiodimethyl carbamate], for which the “growth (turbidity)” value in data set [1] (0.1 g/L) was “++”; in data set [1] (0.2 g/L), “++”; in data set [1] (0.3 g/L) it was “−”; in data set [1] (0.5 g/L) it was “−”; in data set [1] (0.8 g/L) it was “−”; in data set [1] (1 g/L) it was “−”. Further, in data set [1] (stated 'as illustrated in Example 2'), the “concentration that must be reached before inhibition of microbial growth ends” value was less than 0.1 g/L.

As to `CCCCCCCCO` [Octanol], the “change in Log cell number” value in data set [2] (0.05 g/L) is recorded as 0; in data set [2] (0.1 g/L) it was −1; in data set [2] (0.2 g/L) it was 0; in data set [2] (0.25 g/L) it was −1; in data set [2] (0.5 g/L), −1. The “Final anaerobic vial OD” value was 0.28 in data set [2] (0.05 g/L); 0.4 in data set [2] (0.1 g/L); 0.54 in data set [2] (0.2 g/L); 0.4 in data set [2] (0.25 g/L); 0.01 in data set [2] (0.5 g/L). Moreover, the “effectiveness of the inhibitor in words” value in data set [2] is recorded as “ineffective except at the highest concentrations”. Further, the “Growth response (turbidity)” value in data set [3] (0.001 g/L, 24 hours of incubation) is reported as “++”; in data set [3] (0.001 g/L, 48 hours of incubation), “++”; in data set [3] (0.001 g/L, 120 hours of incubation) it was “++”; in data set [3] (0.005 g/L, 24 hours of incubation) it was “++”; in data set [3] (0.005 g/L, 48 hours of incubation) it was “++”; in data set [3] (0.005 g/L, 120 hours of incubation), “++”. For the same compound, the “Growth response (turbidity)” value was “++” in data set [3] (0.01 g/L, 24 hours of incubation); “++” in data set [3] (0.01 g/L, 48 hours of incubation); “++” in data set [3] (0.01 g/L, 120 hours of incubation); “++” in data set [3] (0.05 g/L, 24 hours of incubation); “++” in data set [3] (0.05 g/L, 48 hours of incubation); “++” in data set [3] (0.05 g/L, 120 hours of incubation). For the same compound, the “Growth response (turbidity)” value is recorded as “−” in data set [3] (0.25 g/L, 24 hours of incubation); “−” in data set [3] (0.25 g/L, 48 hours of incubation); “−” in data set [3] (0.25 g/L, 120 hours of incubation); “−” in data set [3] (setting [6]); “−” in data set [3] (setting [7]); “−” in data set [3] (setting [8]).

Regarding `Cc1cc(O)ccc1Cl` [4-chloro-3-metyhl phenol], the “growth (turbidity)” value in data set [1] (0.1 g/L), in data set [1] (0.5 g/L) and in data set [1] (1 g/L) was “−” throughout.

Take `COC(=O)c1ccc(O)cc1` [Methylparaben]: the “change in Log cell number” value is 0 in data set [2] (0.5 g/L); 0 in data set [2] (0.6 g/L); 1 in data set [2] (0.8 g/L); −1 in data set [2] (1 g/L); −2 in data set [2] (2.5 g/L). The “Final anaerobic vial OD” value came to 0.09 in data set [2] (0.5 g/L); 0.05 in data set [2] (0.6 g/L); 0.05 in data set [2] (0.8 g/L); 0.04 in data set [2] (1 g/L); 0.01 in data set [2] (2.5 g/L). The “effectiveness of the inhibitor in words” value in data set [2] is on record as “showed this desirable property at the lowest efficacious concentrations”. Also, the “growth (turbidity)” value in data set [1] (0.01 g/L) is given as “++”; in data set [1] (0.05 g/L), “++”; in data set [1] (0.1 g/L) it was “++”; in data set [1] (0.5 g/L) it was “+”; in data set [1] (1 g/L) it was “−”; in data set [1] (2.5 g/L), “−”.

Take `Oc1ccccc1` [phenol]: the “growth (turbidity)” value is “++” in data set [1] (0.01 g/L); “++” in data set [1] (0.05 g/L); “++” in data set [1] (0.1 g/L); “++” in data set [1] (0.5 g/L); “++” in data set [1] (1 g/L); “−” in data set [1] (10 g/L). The “growth (turbidity)” value in data set [1] (50 g/L) is recorded as “−”.

Take `OCCOc1ccccc1` [2-phenoxy-ethan-1-ol]: the “growth (turbidity)” value in data set [1] (1 g/L) is reported as “++”; in data set [1] (2 g/L), “++”; in data set [1] (3 g/L), “++”; in data set [1] (4 g/L) it was “−”.

With `CCOC=O` [Ethyl formate], the “decline of ethyl formate concentration” value in data set [4] stood at 10 fold. Further, the “change in Log cell number” value was −2 in data set [2] (5 g/L); −6 in data set [2] (10 g/L); −6 in data set [2] (25 g/L); “Dead” in data set [2] (50 g/L); “Dead” in data set [2] (80 g/L). For the same compound, the “Final anaerobic vial OD” value was 0.02 in data set [2] (5 g/L); 0.01 in data set [2] (10 g/L); 0.005 in data set [2] (25 g/L); 0.05 in data set [2] (50 g/L); 0.06 in data set [2] (80 g/L). In addition, in data set [5] (0.2% concentration), the “delay of maximum growth” value was “four”. The “effect on the maximum population in words” value in data set [5] (0.2% concentration) is listed as “longer maintenance of the maximum population”. Further, the “mean nitrate+nitrite loss rate” value in data set [5] (0.2% ethyl formate) came out at 190 ppm/day. Further, in data set [5] (0.2% ethyl formate vs no added ethyl formate), the “consumption of electron acceptors nitrate+nitrite slower in the inhibited treatment” value was found to be 31%. Further, the “Growth response (turbidity)” value in data set [3] (0.1 g/L, 24 hours of incubation) is reported as “++”; in data set [3] (0.1 g/L, 48 hours of incubation), “++”; in data set [3] (0.1 g/L, 120 hours of incubation) it was “++”; in data set [3] (setting [6]), “++”; in data set [3] (setting [7]) it was “++”; in data set [3] (setting [8]), “++”. In addition, the “Growth response (turbidity)” value in data set [3] (1 g/L, 24 hours of incubation) is listed as “++”; in data set [3] (1 g/L, 48 hours of incubation), “++”; in data set [3] (1 g/L, 120 hours of incubation), “++”; in data set [3] (5 g/L, 24 hours of incubation), “+”; in data set [3] (5 g/L, 48 hours of incubation), “++”; in data set [3] (5 g/L, 120 hours of incubation), “++”. Further, the “Growth response (turbidity)” value in data set [3] (25 g/L, 24 hours of incubation) is recorded as “−”; in data set [3] (25 g/L, 48 hours of incubation), “−”; in data set [3] (25 g/L, 120 hours of incubation) it was “−”; in data set [3] (50 g/L, 24 hours of incubation), “−”; in data set [3] (50 g/L, 48 hours of incubation), “−”; in data set [3] (50 g/L, 120 hours of incubation), “−”.

`O=S(=O)([O-])[O-].OC[P+](CO)(CO)CO.OC[P+](CO)(CO)CO` [Bis(tetrakis(hydroxymethyl))phosphonium sulfate]: the “growth (turbidity)” value was “++” in data set [1] (0.1 g/L), “++” in data set [1] (0.2 g/L), “−” in data set [1] (0.3 g/L) and “−” in data set [1] (0.4 g/L).

With `CCCCCCCCCCCCN(C)C` [N,N,-dimethyldodecylamine], the “growth (turbidity)” value in data set [1] (0.0001 g/L) is “++”; in data set [1] (0.001 g/L), “++”; in data set [1] (0.005 g/L), “++”; in data set [1] (0.01 g/L) it was “++”; in data set [1] (0.1 g/L) it was “−”; in data set [1] (0.5 g/L) it was “−”. The “growth (turbidity)” value in data set [1] (1 g/L) is “−”.
